The values that follow come from article PMC10706087, “The Subtype Selectivity in Search of Potent Hypotensive Agents among 5,5-Dimethylhydantoin Derived α1-Adrenoceptors Antagonists” (International Journal of Molecular Sciences, 2023).

Data set [1] addresses α1-adrenoceptors (α1-ARs), rat cerebral cortex. The experiment in a line: Radioligand binding assay with [3H]-prazosin, affinity for α1-ARs. To be noted: three independent experiments in duplicates, read-out: α1-adrenoceptor affinity Ki. As to the method:
In the first step, all synthesized compounds (1–15) were tested in vitro for their affinity for α1-ARs on rat cerebral cortex by the radioligand binding assay using [^3H]-prazosin as a specific radioligand.
The affinity for α1-ARs was determined by radioligand binding assay on rat cerebral cortex using [3H]-prazosin as a specific radioligand. The brains were homogenized in 20 volumes of an ice-cold 50 mM Tris-HCl buffer (pH 7.6) and were centrifuged (MPW Med. Instruments, Warsaw, Poland) at 20,000× g for 20 min (0–4 °C). The cell pellet was resuspended in the Tris-HCl buffer and centrifuged again. Radioligand-binding assay was performed in plates (MultiScreen/Millipore, Burlington, MA, USA). The final incubation mixture (final volume 300 μL) consisted of 240 μL of the membrane suspension, 30 μL of [3H]-Prazosin (0.2 nM) solution, and 30 μL of the buffer containing seven to eight concentrations (10^−11 to 10^−4 M) of the tested compounds. For measuring the unspecific binding, phentolamine, 10 μM (in the case of [3H]-Prazosin) was applied. The incubation was terminated by rapid filtration over glass fiber filters (Whatman GF/C, Sigma-Aldrich) using a vacuum manifold (Millipore). The filters were then washed twice with the assay buffer and placed in scintillation vials with a liquid-scintillation cocktail. Radioactivity was measured in a WALLAC 1409 DSA liquid-scintillation counter (BioSurplus, San Diego, CA, USA).
(§1) All statistics were performed using GraphPad Prism, Version 6.0 (GraphPad Software, San Diego, CA, USA). In the radioligand binding study, data were analyzed by a one-site curve-fitting equation, and inhibition constants (Ki) values were calculated via the Cheng-Prusoff equation [63]. In functional studies, data were analyzed using a sigmoidal dose-response (variable slope) equation. Arterial blood pressure data were analyzed using a two-way ANOVA with Sidak’s post-hoc test for multiple comparisons. A p < 0.05 was considered statistically significant.

Data set [2] addresses T1, human adrenergic receptor α1B (Homo sapiens, UniProt P35368).
T1 sequence (P35368 1-520): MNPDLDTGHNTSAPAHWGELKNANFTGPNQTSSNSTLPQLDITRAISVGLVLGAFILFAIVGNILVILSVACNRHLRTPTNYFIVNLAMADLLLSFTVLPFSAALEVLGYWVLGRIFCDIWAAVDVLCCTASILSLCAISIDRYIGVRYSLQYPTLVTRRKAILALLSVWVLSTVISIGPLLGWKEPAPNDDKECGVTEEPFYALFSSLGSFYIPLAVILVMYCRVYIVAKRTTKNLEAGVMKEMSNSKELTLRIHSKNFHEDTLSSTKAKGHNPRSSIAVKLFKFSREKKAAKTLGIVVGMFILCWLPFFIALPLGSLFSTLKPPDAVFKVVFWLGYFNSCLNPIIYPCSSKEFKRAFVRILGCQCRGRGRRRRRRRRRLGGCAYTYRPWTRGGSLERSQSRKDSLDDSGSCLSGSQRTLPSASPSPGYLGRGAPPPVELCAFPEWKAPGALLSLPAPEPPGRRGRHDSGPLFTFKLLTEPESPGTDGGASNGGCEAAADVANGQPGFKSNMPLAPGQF
The experiment in a line: Intrinsic activity, aequorin luminescence functional assay at α1B-AR. The settings on record: for α1B-AR Profile: agonist/antagonist profile; for IC50: cells expressing aequorin and human α1B, against phenylephrine, means of three independent experiments in duplicates; for Selectivity Ratio α1A/α1B: selectivity for α1B-AR (IC50(α1A-AR)/IC50(α1B-AR)). It counts as cell-based. The procedure:
(§2) The subtype selectivity for α1A and α1B was calculated as IC50(α1B-AR)/IC50(α1A-AR) and IC50(α1A-AR)/IC50(α1B-AR) ratio, respectively.
(§3) Intrinsic activity at the α1-AR subtypes studies were performed using the cells expressing mitochondrially-targeted aequorin and one of the human adrenergic receptor α1A or α1B (PerkinElmer, Boston, MA, USA), according to the manufacturer’s instructions. For measurement, frozen cells were thawed and re-suspended in 10 mL of assay buffer containing 5 μM “Coelenterazine h”. This cell suspension was put in a 10 mL Falcon tube, fixed onto a rotating heel, and incubated overnight at rt in the dark (8 rpm; 45° angle). Cells were diluted with Assay Buffer to 5000 cells/20 μL. […] The light emitted was recorded for 20 s. Cells with antagonists were incubated for 15 min at room temperature. […] Luminescence was measured using the multidetection microplate reader (POLARstar Omega, BMG LABTECH, Ortenberg, Germany).
as §1

In data set [3] the test system is arterial blood pressure of normotensive Wistar rats. The experiment in a line: Influence on blood pressure in normotensive anesthetized rats after i.v. administration. It counts as in vivo, rat. The settings on record: 2.0 mg/kg i.v., mean, n = 6. The procedure: In the next step, the hypotensive activity of novel compounds 1–3, 5–9, and 11–14 was determined after i.v. administration to normotensive anesthetized rats. All results are shown in Supplementary Table S1.
The normotensive rats were anesthetized with thiopental (75 mg/kg) by intraperitoneal injection (i.p.). The left carotid artery was cannulated with a polyethylene tub filled with heparin in saline to facilitate pressure measurements using a PowerLab Apparatus (ADInstruments, Sydney, Australia). Blood pressure was measured immediately before administration of the tested compounds or vehicle—time 0 min (initial blood pressure) and 60 min thereafter. Initial blood pressure before administration of the tested chemicals in all experimental groups was similar. The tested compounds were dissolved in a specific vehicle: ethyl alcohol 5% − kolliphor 5% − water 90%. All tested chemicals were administrated intravenously (i.v.) at a constant volume of 1 mL/kg after 20 min of stabilization period. The compounds were tested at a starting dose of 2 mg/kg. If the hypotensive activity was found, the dose was reduced by half. The dosing was continued until the hypotensive effects disappeared. Urapidil was used as a reference compound.
as §1

For data set [4], the target named is T2, human adrenergic receptor α1A (Homo sapiens, UniProt P35348).
T2 sequence (P35348 1-466): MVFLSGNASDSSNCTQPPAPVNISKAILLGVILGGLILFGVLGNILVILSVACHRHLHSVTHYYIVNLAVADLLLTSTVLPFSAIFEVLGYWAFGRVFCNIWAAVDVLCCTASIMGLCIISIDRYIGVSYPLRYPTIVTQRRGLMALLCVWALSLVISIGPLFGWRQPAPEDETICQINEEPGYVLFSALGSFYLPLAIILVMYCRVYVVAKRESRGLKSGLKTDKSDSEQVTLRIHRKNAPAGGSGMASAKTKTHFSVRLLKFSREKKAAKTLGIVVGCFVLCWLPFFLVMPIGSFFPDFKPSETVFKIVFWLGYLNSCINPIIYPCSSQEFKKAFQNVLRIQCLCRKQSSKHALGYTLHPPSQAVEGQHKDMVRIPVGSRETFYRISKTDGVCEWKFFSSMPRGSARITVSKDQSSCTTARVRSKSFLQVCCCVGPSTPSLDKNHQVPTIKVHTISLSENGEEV
The experiment in a line: Intrinsic activity, aequorin luminescence functional assay at α1A-AR. It counts as cell-based. The settings on record: for α1A-AR Profile: agonist/antagonist profile; for IC50: cells expressing aequorin and human α1A, against phenylephrine, means of three independent experiments in duplicates; for Selectivity Ratio α1B/α1A: selectivity for α1A-AR (IC50(α1B-AR)/IC50(α1A-AR)). The procedure: as §2, §3, §1

The mark [5] stands for this setting: 0 min (initial, before administration).

Structures are written as SMILES. Structures can show the parent of a compound that is named as a salt.

With `CC1(C)C(=O)N(Cc2ccc(Cl)cc2Cl)C(=O)N1CCCCCCN1CCN(c2ccc(Cl)c(Cl)c2)CC1.Cl` [Compound 4, 3-(2,4-dichlorobenzyl)-1-(6-(4-(3,4-dichlorophenyl)piperazin-1-yl)hexyl)-5,5-dimethylimidazolidine-2,4-dione hydrochloride], the melting point was 154 to 156 °C. For the same compound, in data set [1], the Ki was found to be 255 nM.

For `CC1(C)C(=O)N(Cc2ccc(Cl)cc2Cl)C(=O)N1CC(O)CN1CCN(c2ccccc2F)CC1` (stereo not shown) [Compound 7], the “α1B-AR Profile” value in data set [2] is “Antagonist”. The IC50 in data set [2] worked out at 484 nM; in data set [4], 1410 nM. Further, the “Selectivity Ratio α1A/α1B” value in data set [2] stood at 2.92. Further, the Diastolic blood pressure in data set [3] (setting [5]) is 103.2; in data set [3] (5 min), 91.5; in data set [3] (10 min) it was 91.0; in data set [3] (20 min), 93.0; in data set [3] (30 min) it was 92.0; in data set [3] (40 min), 94.3. The Diastolic blood pressure in data set [3] (50 min) amounted to 93.2; in data set [3] (60 min), 91.3. For the same compound, the Systolic blood pressure in data set [3] (setting [5]) was 137.8; in data set [3] (5 min) it was 125.3; in data set [3] (10 min), 124.3; in data set [3] (20 min), 121.8; in data set [3] (30 min), 123.8; in data set [3] (40 min) it was 123.7. In addition, the Systolic blood pressure is 122.7 in data set [3] (50 min) and 121.5 in data set [3] (60 min). Moreover, the inhibitory constant (Ki) in data set [1] is 100 nM. The “α1A-AR Profile” value in data set [4] is on record as “Antagonist”. Besides, the “Selectivity Ratio α1B/α1A” value in data set [4] is reported as 0.34.

Take `CNC[C@H](O)c1cccc(O)c1` [Phenylephrine, phenylephrine, reference compound]: the “α1B-AR Profile” value in data set [2] was “Agonist”. In addition, the “α1A-AR Profile” value in data set [4] is reported as “Agonist”.

Turning to `CCOc1ccccc1OCCN[C@H](C)Cc1ccc(OC)c(S(N)(=O)=O)c1` [Tamsulosin, tamsulosin hydrochloride, reference compound], in data set [2], the “α1B-AR Profile” value is on record as “Antagonist” and the IC50 was 0.48 nM. The “α1A-AR Profile” value in data set [4] is “Antagonist”.

On to `COc1cc2nc(N3CCN(C(=O)C4CCCO4)CC3)nc(N)c2cc1OC` (stereo not shown) [Terazosin, terazosin hydrochloride, reference compound], for which the “α1B-AR Profile” value in data set [2] was “Antagonist”. Moreover, in data set [4], the “α1A-AR Profile” value was “Antagonist”.

`CC1(C)C(=O)N(Cc2ccc(Cl)cc2Cl)C(=O)N1CC(O)CN1CCN(c2ccc(F)cc2F)CC1` (stereo not shown) [Compound 9]: the “α1B-AR Profile” value in data set [2] is given as “Antagonist”. Besides, the IC50 came to 147 nM in data set [2] and 162 nM in data set [4]. Besides, the “Selectivity Ratio α1A/α1B” value in data set [2] is listed as 1.10. The Diastolic blood pressure was 100.3 in data set [3] (setting [5]); 98.2 in data set [3] (5 min); 93.5 in data set [3] (10 min); 90.8 in data set [3] (20 min); 93.2 in data set [3] (30 min); 92.0 in data set [3] (40 min). Also, the values for the Diastolic blood pressure in data set [3] (50 min) and in data set [3] (60 min) were 90.3 and 87.3, respectively. The Systolic blood pressure in data set [3] (setting [5]) was determined as 135.2; in data set [3] (5 min) it was 133.3; in data set [3] (10 min) it was 127.0; in data set [3] (20 min), 125.0; in data set [3] (30 min), 128.2; in data set [3] (40 min) it was 128.2. In addition, the Systolic blood pressure in data set [3] (50 min) worked out at 127.2; in data set [3] (60 min), 122.0. The Ki in data set [1] came out at 42 nM. Also, the “α1A-AR Profile” value in data set [4] is listed as “Antagonist”. Also, the “Selectivity Ratio α1B/α1A” value in data set [4] is given as 0.91.

Consider `CC1(C)C(=O)N(Cc2ccc(Cl)cc2Cl)C(=O)N1CC(O)CN1CCN(C(c2ccccc2)c2ccccc2)CC1` (stereo not shown) [Compound 15], for which the Ki in data set [1] was 2440 nM.

With `CC1(C)C(=O)N(Cc2ccc(Cl)cc2Cl)C(=O)N1CC(O)CN1CCN(c2ccc(F)cc2)CC1` (stereo not shown) [Compound 8], in data set [2], the “α1B-AR Profile” value is given as “Antagonist”. For the same compound, the IC50 in data set [2] was 170 nM; in data set [4], 817 nM. In addition, the “Selectivity Ratio α1A/α1B” value in data set [2] came out at 4.79. The Diastolic blood pressure in data set [3] (setting [5]) stood at 96.7; in data set [3] (5 min), 87.8; in data set [3] (10 min) it was 89.0; in data set [3] (20 min), 88.2; in data set [3] (30 min), 86.5; in data set [3] (40 min), 84.7. For the same compound, the Diastolic blood pressure was found to be 85.5 in data set [3] (50 min) and 84.3 in data set [3] (60 min). Moreover, the Systolic blood pressure in data set [3] (setting [5]) was found to be 129.2; in data set [3] (5 min) it was 121.5; in data set [3] (10 min), 120.5; in data set [3] (20 min) it was 120.0; in data set [3] (30 min), 120.2; in data set [3] (40 min), 119.5. For the same compound, the results for the Systolic blood pressure in data set [3] (50 min) and in data set [3] (60 min) were 120.0 and 119.0, respectively. Besides, the Ki in data set [1] is 44 nM. Moreover, the “α1A-AR Profile” value in data set [4] is “Antagonist”. Further, the “Selectivity Ratio α1B/α1A” value in data set [4] was determined as 0.21.
